Assay results: patent publication US20150010928A1, “MEANS AND METHODS FOR ASSESSING AN ENDOCRINE DISEASE OR DISORDER” (priority 2012, published 2015)
Marks after values point to notes of the source that are not given here.

Test system: male rats
Assay: Plasma metabolite profiling (GC-MS, LC-MS, SPE-LC-MS) in male rats dosed once daily over 28 days (OECD 407)
Format: in vivo, rat
Conditions: high dose; for Glycochenodeoxycholic acid / Mannose: Table 15c; for 3,4-Dihydroxyphenylacetic acid (DOPAC) / 18-Hydroxy-11-deoxycorticosterone / Glycerol phosphate, lipid fraction / Homovanillic acid (HVA) / Kynurenic acid / Lysophosphatidylcholine (C18:1) / Lysophosphatidylethanolamine (C22:5) / Phosphate, lipid fraction / Phosphatidylcholine (C18:0,C18:1) / Sphingomyelin (d18:1, C16:0) / Sphingomyelin (d18:1,C23:0) / Sphingomyelin (d18:1,C24:0) / Sphingomyelin (d18:2,C18:0) / TAG No 02 / Taurocholic acid / myo-Inositol, lipid fraction: Table 15d; for Alanine, ratio versus control / Androstenedione, ratio versus control / Glycine, ratio versus control / Heptadecanoic acid (C17:0), ratio versus control / Testosterone, ratio versus control / Threonine, ratio versus control / Uric acid, ratio versus control / alpha-Tocopherol, ratio versus control / Cholesterol, ratio versus control: male rats, plasma
How it was run: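 Polar and lipid fractions profiled by GC-MS and LC-MS/MRM, steroids by online SPE-LC-MS; pool-normalized data compared to controls by Welch test as treatment ratios and p-values.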

## C[C@@H]1CC2=CC(=O)CC[C@@H]2[C@H]2CC[C@@]3(C)[C@@H](CC[C@]3(C)O)[C@@H]21 [Mibolerone]
m7, male rats
  Glycochenodeoxycholic acid: 1.31
  Mannose: 1.41 *
  3,4-Dihydroxyphenylacetic acid (DOPAC): 0.83 *
  18-Hydroxy-11-deoxycorticosterone: 0.83 *
  Glycerol phosphate, lipid fraction: 0.08 *
  Homovanillic acid (HVA): 0.5 *
  Kynurenic acid: 0.73 *
  Lysophosphatidylcholine (C18:1): 0.53 *
  Lysophosphatidylethanolamine (C22:5): 0.54 *
  Phosphate, lipid fraction: 0.32 *
  Phosphatidylcholine (C18:0,C18:1): 0.19 *
  Sphingomyelin (d18:1, C16:0): 0.12 *
  Sphingomyelin (d18:1,C23:0): 0.07 *
  Sphingomyelin (d18:1,C24:0): 0.1 *
  Sphingomyelin (d18:2,C18:0): 0.17 *
  TAG No 02: 0.34 *
  Taurocholic acid: 1.11
  myo-Inositol, lipid fraction: 0.08 *
m14, male rats
  Glycochenodeoxycholic acid: 2.14 *
  Mannose: 1.08 *
  3,4-Dihydroxyphenylacetic acid (DOPAC): 0.96
  18-Hydroxy-11-deoxycorticosterone: 0.93
  Glycerol phosphate, lipid fraction: 0.35 *
  Homovanillic acid (HVA): 0.69 *
  Kynurenic acid: 0.5
  Lysophosphatidylcholine (C18:1): 0.81 *
  Lysophosphatidylethanolamine (C22:5): 0.87
  Phosphate, lipid fraction: 0.62 *
  Phosphatidylcholine (C18:0,C18:1): 0.61 *
  Sphingomyelin (d18:1, C16:0): 0.37 *
  Sphingomyelin (d18:1,C23:0): 0.53 *
  Sphingomyelin (d18:1,C24:0): 0.63 *
  Sphingomyelin (d18:2,C18:0): 0.3 *
  TAG No 02: 0.24 *
  Taurocholic acid: 0.62 *
  myo-Inositol, lipid fraction: 0.29 *
m28, male rats
  Glycochenodeoxycholic acid: 5.73 *
  Mannose: 1.07 *
  3,4-Dihydroxyphenylacetic acid (DOPAC): 0.79 *
  18-Hydroxy-11-deoxycorticosterone: 0.63 *
  Glycerol phosphate, lipid fraction: 0.7
  Homovanillic acid (HVA): 0.6 *
  Kynurenic acid: 0.54 *
  Lysophosphatidylcholine (C18:1): 0.91 *
  Lysophosphatidylethanolamine (C22:5): 0.85 *
  Phosphate, lipid fraction: 0.81 *
  Phosphatidylcholine (C18:0,C18:1): 1.1
  Sphingomyelin (d18:1, C16:0): 0.51 *
  Sphingomyelin (d18:1,C23:0): 1.09
  Sphingomyelin (d18:1,C24:0): 1.01
  Sphingomyelin (d18:2,C18:0): 0.33 *
  TAG No 02: 0.23 *
  Taurocholic acid: 0.75 *
  myo-Inositol, lipid fraction: 0.5 *
Day 7
  Alanine, ratio versus control: 0.72 *
  Androstenedione, ratio versus control: 0.05 *
  Glycine, ratio versus control: 0.86 *
  Heptadecanoic acid (C17:0), ratio versus control: 0.37 *
  Testosterone, ratio versus control: 0.07 *
  Threonine, ratio versus control: 0.76 *
  Uric acid, ratio versus control: 0.66 *
  alpha-Tocopherol, ratio versus control: 0.07 *
Day 14
  Alanine, ratio versus control: 0.93 *
  Androstenedione, ratio versus control: 0.96^
  Cholesterol, ratio versus control: 0.27 *
  Glycine, ratio versus control: 0.86^
  Heptadecanoic acid (C17:0), ratio versus control: 0.57 *
  Testosterone, ratio versus control: 0.68 *
  Threonine, ratio versus control: 1.02^
  Uric acid, ratio versus control: 0.7 *
  alpha-Tocopherol, ratio versus control: 0.33 *
Day 28
  Alanine, ratio versus control: 1.14^
  Androstenedione, ratio versus control: 0.46 *
  Cholesterol, ratio versus control: 0.52 *
  Glycine, ratio versus control: 0.72 *
  Heptadecanoic acid (C17:0), ratio versus control: 0.82 *
  Testosterone, ratio versus control: 0.26 *
  Threonine, ratio versus control: 1.04^
  Uric acid, ratio versus control: 0.5 *
  alpha-Tocopherol, ratio versus control: 0.64 *
